According to US5852001A, “Method and compounds for inhibition of ribonucleases” (The Endowment for Research in Human Biology, priority 1996, dated 1998):
Like-named read-outs stand apart in the source and are kept apart here.

What was measured:
RNase A [1] = molecular target: T1, RNase A (Bos taurus, UniProt P61823); assay: Inhibition of RNase A activity toward CpA, HPLC method
T1 sequence (P61823 27-150): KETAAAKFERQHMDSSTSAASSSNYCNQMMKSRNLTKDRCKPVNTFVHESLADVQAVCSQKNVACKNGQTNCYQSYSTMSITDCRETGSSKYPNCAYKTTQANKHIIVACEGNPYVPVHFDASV
Method: Assays were performed in 60 μl of 0.2M Mes (pH 5.9) containing 50 μg/ml nuclease-free bovine serum albumin (obtained from Worthington), 20 μM CpA, and 23-320 pM RNase A. After 14-96 minutes of incubation at 25° C., substrate and products were quantitated by C18 /HPLC with a 20 minute linear gradient from 0 to 5.6% acetonitrile in 0.1% trifluoroacetic acid at a flow rate of 1.5 ml/min recording absorbance at 254 nm. Values of Km /kcat were then calculated (according to the method of Shapiro et al., 1986, Biochemistry 25:7255-7264) and plotted vs. the inhibitor concentration [I]. The Ki value is the -[I] intercept of a three- or four-point plot of Km /kcat, vs. [I] and was obtained by linear regression.

RNase A [2] = molecular target: T1, RNase A; assay: RNA protection assay (tRNA, agarose gel electrophoresis); type: biochemical, bovine; settings: 0.5 mM inhibitor, 0.2 nM RNase A, pH 7.0, 20 minutes, 25° C.
Method: 3 μg of tRNA were incubated in 30 μl of 20 mM Hepes, 130 mM NaCl (pH 7.0) containing 30 μg/ml bovine serum albumin, 0.2 nM RNase A and the inhibitor. After 20 minutes of incubation at 25° C., the reaction mixture was analyzed by agarose gel electrophoresis and staining with ethidium bromide. This assay was chosen since a single endonucleolytic cleavage in a polymeric RNA molecule can produce a large variation of the molecular size which can be easily detected by agarose gel electrophoresis.

RNase A [3] = molecular target: T1, RNase A; settings: pH 7; read-out: inhibition constant Ki (reported); cited from earlier work
RNase A [4] = molecular target: T1, RNase A; type: biochemical, bovine; settings: for Ki: 25° C.
Method: Inhibition was assessed from the dependence of 1/v0 on [I], where v0 represents the velocity measured during the initial 5-10% of the enzymatic reaction and [I] is the inhibitor concentration. Since the substrate concentration used in these assays is well below Km, the -[I] intercept of such a plot should closely approximate Ki for simple inhibition mechanisms.

hRNase-2 = hRNase-2 (Homo sapiens, UniProt P10153); assay: Inhibition of human ribonuclease hRNase-2, method of Example IX; type: biochemical
Sequence of hRNase-2 (P10153 28-161): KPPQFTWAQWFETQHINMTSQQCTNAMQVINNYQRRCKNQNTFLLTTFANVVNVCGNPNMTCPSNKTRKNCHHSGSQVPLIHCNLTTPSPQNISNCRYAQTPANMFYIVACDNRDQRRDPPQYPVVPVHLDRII
Method: (§1) Assays were performed at 25° C. with the dinucleotide cytidylyl-(3',5')-guanosine (75 μM) as substrate in 0.2M Mes (pH 5.9), 0.2M Hepes (pH 7.0), or 0.2M Hepes (pH 8.0), containing 10 μg/ml bovine serum albumin. The decrease in absorbance at 286 nm following the addition of RNase A was continuously monitored. Inhibition was assessed from the dependence of 1/v0 on [I], where v0 represents the velocity measured during the initial 5-10% of the enzymatic reaction and [I] is the inhibitor concentration. Since the substrate concentration used in these assays is well below Km, the -[I] intercept of such a plot should closely approximate Ki for simple inhibition mechanisms.

hRNase-4 = molecular target: T2, hRNase-4 (Homo sapiens, UniProt P34096); assay: Inhibition of human ribonuclease hRNase-4, method of Example IX
T2 sequence (P34096 29-147): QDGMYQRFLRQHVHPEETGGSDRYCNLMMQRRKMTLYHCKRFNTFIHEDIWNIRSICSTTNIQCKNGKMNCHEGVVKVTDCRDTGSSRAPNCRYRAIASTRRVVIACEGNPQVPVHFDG
Method: as §1

[5] = 0.2M Hepes pH 7.0, 75 μM CpG, read-out: Ki at indicated pH, pH 7
[6] = 0.2M Hepes pH 8.0, 75 μM CpG, read-out: Ki at indicated pH, pH 8
[7] = 0.2M Mes pH 5.9, 75 μM CpG, read-out: Ki at indicated pH, pH 5.9

Compound	Ki (RNase A [1]) [µM]	protection of tRNA from the catalytic action of RNase A (RNase A [2])	Ki (RNase A [4]; [5]) [µM]	Ki (RNase A [4]; [6]) [µM]	Ki (RNase A [4]; [7]) [µM]	also measured
Cc1cn([C@H]2C[C@H](OP(=O)(O)OC[C@H]3O[C@@H](n4cnc5c(N)ncnc54)C[C@@H]3O)[C@@H](CO)O2)c(=O)[nH]c1=O [TpdA, thymidylyl-(3'-5')-2'-deoxyadenosine]	1300					
Nc1ccn([C@@H]2O[C@H](CO)[C@@H](O)[C@H]2OP(=O)(O)O)c(=O)n1 [2'-CMP, Cytidine 2'-monophosphate]	3.1	partial protection				Ki (RNase A [3]): 147 µM
Nc1ncnc2c1ncn2[C@@H]1O[C@H](COP(=O)(O)OP(=O)(O)O)[C@@H](OP(=O)(O)O)[C@H]1O [ppAp, 5'-diphosphoadenosine-3'-phosphate]	0.24	fully protecting	1.3	217	0.24	Ki (hRNase-2): 0.25 µM
Nc1ncnc2c1ncn2[C@@H]1O[C@H](COP(=O)(O)OP(=O)(O)O[C@H]2C[C@H](n3ccc(=O)[nH]c3=O)O[C@@H]2COP(=O)(O)O)[C@@H](OP(=O)(O)O)[C@H]1O [pdUppAp, 5'-phospho-2'-deoxyuridine-(3'-Pβ)-5'-diphosphoadenosine-3'-phosphate]			0.21	22	0.035	factor by which RNase A inhibition constant is lower than that for ppAp (RNase A [4]; pH 5.9): 6.9; factor by which RNase A inhibition constant is lower than that for ppAp (RNase A [4]; pH 7): 6.2; factor by which RNase A inhibition constant is lower than that for ppAp (RNase A [4]; pH 8): 9.9; Ki (hRNase-4): 0.28 µM; Ki (hRNase-2): 0.22 µM
uridine-vanadate		partial protection				Ki (RNase A [3]): 10 µM
Nc1ncnc2c1ncn2[C@@H]1O[C@H](COP(=O)(O)OP(=O)(O)O[C@H]2C[C@H](n3ccc(=O)[nH]c3=O)O[C@@H]2CO)[C@@H](OP(=O)(O)O)[C@H]1O [dUppAp, 2'-deoxyuridine-(3'-Pβ)-5'-diphosphoadenosine-3'-phosphate]			1.1	44	0.13	
Cc1cn([C@H]2C[C@H](OP(=O)(O)OP(=O)(O)OC[C@H]3O[C@@H](n4cnc5c(N)ncnc54)[C@H](O)[C@@H]3OP(=O)(O)O)[C@@H](COP(=O)(O)O)O2)c(=O)[nH]c1=O [pTppAp, 5'-phosphothymidine-(3'-Pβ)-5'-diphosphoadenosine-3'-phosphate]			0.18	28	0.052	factor by which RNase A inhibition constant is lower than that for ppAp (RNase A [4]; pH 5.9): 4.6; factor by which RNase A inhibition constant is lower than that for ppAp (RNase A [4]; pH 7): 7.2; factor by which RNase A inhibition constant is lower than that for ppAp (RNase A [4]; pH 8): 7.8; Ki (hRNase-4): 0.27 µM; Ki (hRNase-2; pH 5.9, read-out: Ki at pH 5.9, hRNase-2): 0.5 µM
Nc1ncnc2c1ncn2[C@@H]1O[C@H](COP(=O)(O)O)[C@@H](OP(=O)(O)O)[C@H]1O [pAp, adenosine 3',5'-diphosphate]	5.6					
Cc1cn([C@H]2C[C@H](OP(=O)(O)OP(=O)(O)OC[C@H]3O[C@@H](n4cnc5c(N)ncnc54)C[C@@H]3O)[C@@H](CO)O2)c(=O)[nH]c1=O [TppdA, thymidine-(3'-Pβ)-5'-diphospho-2'-deoxyadenosine]					3.5	
Nc1ncnc2c1ncn2[C@@H]1O[C@H](COP(=O)(O)OP(=O)(O)O[C@H]2C[C@H](n3ccc(=O)[nH]c3=O)O[C@@H]2CO)[C@@H](O)[C@H]1OP(=O)(O)O [dUppA2'p, 2'-deoxyuridine-(3'-Pβ)-5'-diphosphoadenosine-2'-phosphate]					0.66	fold higher Ki than that for dUppAp (RNase A [4]; pH 5.9): 5 fold
